IC50 data for eleven molecules are collected here from US11578087B2, “Oxaborole esters and uses thereof” (priority 2016, dated 2023).

Assay [1] has as its system IL3000 T. congolense (drug sensitive) strain. Briefly: In vitro Alamar Blue 72 h drug sensitivity assay for T. congolense. It counts as cell-based, Trypanosoma congolense. The conditions noted are these: Trypanosoma congolense, 72 h, bloodstream form, 69 h + 3 h Resazurin, 34° C., read-out: IC50: I Org. Growth T. congolense 3 d. In a few lines: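 Bloodstream-form trypanosomes in HMI medium with 20% bovine serum were exposed to compounds for 69 h at 34° C, 5% CO2, then resazurin for another 3 h. Fluorescence read at ex 536/em 588 nm; IC50 from 11-point sigmoidal dose-response curves, at least three independent runs.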
A general note: The colour change of resazurin is a common sign of viable cells or microbes.

Assay [2] deals with T. cruzi amastigote (Td Tomato-modified) in Vero cells. The assay is described as follows: In vitro IC50 measurement of T. cruzi amastigote killing using Td Tomato-modified T. cruzi. It is filed as cell-based. Conditions: Trypanosoma cruzi, 72 h, fluorescence, read-out: IC50: I Org. amastigote Growth T. cruzi 3 d. In a few lines: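 Vero cells infected with Td Tomato-expressing T. cruzi, treated with compound at 5 uM to 5 nM final, incubated 72 h at 37 °C. Fluorescence (Ex 544/Em 612 nm) read at Day 0 and Day 3, Day 0 subtracted; IC50 and IC90 by nonlinear regression.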

Each structure is given as a SMILES string.

For orientation: IC50 means the concentration needed to halve the response being measured. In the case of `Cc1c(C(=O)NC2(C(=O)OCc3ccc(F)cc3)CCC2)ccc2c1B(O)OC2` [Example 6-066, 4-Fluorobenzyl 1-(1-hydroxy-7-methyl-1,3-dihydrobenzo[c][1,2]oxaborole-6-carboxamido)cyclobutane-1-carboxylate], the results for the half-maximal inhibitory concentration (IC50) in assay [1] and in assay [2] were under 0.5 nM and at most 20 nM, respectively.
`Cc1c(C(=O)N[C@H](C(=O)OCc2ccnc(C(F)(F)F)n2)C(C)C)ccc2c1B(O)OC2` [Example 6-160, (2-(Trifluoromethyl)pyrimidin-4-yl)methyl (1-hydroxy-7-methyl-1,3-dihydrobenzo[c][1,2]oxaborole-6-carbonyl)-L-valinate]: the half-inhibitory concentration (IC50) is under 0.5 nM in assay [1] and 21 to 999 nM in assay [2].
The like results for `Cc1c(C(=O)N[C@H](C(=O)OCc2cccc(CN3CCNCC3)c2)C(C)C)ccc2c1B(O)OC2` [Example 6-117, 3-(Piperazin-1-ylmethyl)benzyl (1-hydroxy-7-methyl-1,3-dihydrobenzo[c][1,2]oxaborole-6-carbonyl)-L-valinate] were, in that order, 10 to 5000 nM and at least 1000 nM.
On the same counts, the results for `Cc1c(C(=O)N[C@H](C(=O)OCC2(O)CCCCC2)C(C)C)ccc2c1B(O)OC2` [Example 6-229, (1-hydroxycyclohexyl)methyl (1-hydroxy-7-methyl-1,3-dihydrobenzo[c][1,2]oxaborole-6-carbonyl)-L-valinate] are under 0.5 nM and at most 20 nM.
For `Cc1c(C(=O)N[C@H](C(=O)OCc2ccc(F)cn2)C(C)C)ccc2c1B(O)OC2` [Example 6-067, (5-Fluoropyridin-2-yl)methyl (1-hydroxy-7-methyl-1,3-dihydrobenzo[c][1,2]oxaborole-6-carbonyl)-L-valinate], the IC50 in assay [1] was under 0.5 nM; in assay [2], at most 20 nM.
The like results for `Cc1c(C(=O)N[C@H](C(=O)OCc2cccc(N3CCOCC3)n2)C(C)C)ccc2c1B(O)OC2` [Example 6-197, (6-morpholinopyridin-2-yl)methyl (1-hydroxy-7-methyl-1,3-dihydrobenzo[c][1,2]oxaborole-6-carbonyl)-L-valinate] were, in that order, under 0.5 nM and at most 20 nM.
Take `Cc1c(C(=O)N[C@H](C(=O)OCc2cccc(CN(C)C)c2)C(C)C)ccc2c1B(O)OC2` [Example 6-081, 3-((Dimethylamino)methyl)benzyl (1-hydroxy-7-methyl-1,3-dihydrobenzo[c][1,2]oxaborole-6-carbonyl)-L-valinate]: the IC50 in assay [1] is under 0.5 nM; in assay [2] it was 21 to 999 nM.
As for `Cc1c(C(=O)N[C@H](C(=O)OCc2cccc(N3CCN(C)CC3)c2)C(C)C)ccc2c1B(O)OC2` [Example 6-072, 3-(4-Methylpiperazin-1-yl)benzyl (1-hydroxy-7-methyl-1,3-dihydrobenzo[c][1,2]oxaborole-6-carbonyl)-L-valinate], the values for the IC50 in assay [1] and in assay [2] were under 0.5 nM and at most 20 nM, respectively.
For `Cc1c(C(=O)N[C@H](C(=O)OCCN2CCCOCC2)C(C)C)ccc2c1B(O)OC2` [Example 6-214, 2-(1,4-oxazepan-4-yl)ethyl (1-hydroxy-7-methyl-1,3-dihydrobenzo[c][1,2]oxaborole-6-carbonyl)-L-valinate], the 50% inhibitory concentration (IC50) was 0.51 to 9.99 nM in assay [1] and at least 1000 nM in assay [2].
Consider `Cc1c(C(=O)NC2(C(=O)OCc3ccc(F)cc3)COC2)ccc2c1B(O)OC2` [Example 6-221, 4-fluorobenzyl 3-(1-hydroxy-7-methyl-1,3-dihydrobenzo[c][1,2]oxaborole-6-carboxamido)oxetane-3-carboxylate], for which the figures for the IC50 in assay [1] and in assay [2] were 0.51 to 9.99 nM and 21 to 999 nM, respectively.
Consider `Cc1c(C(=O)N[C@H](C(=O)OCc2ccc(OCCN3CCOCC3)cc2)C(C)C)ccc2c1B(O)OC2` [Example 6-247, 4-(2-Morpholinoethoxy)benzyl(1-hydroxy-7-methyl-1,3-dihydrobenzo[c][1,2]oxaborole-6-carbonyl)-L-valinate], for which the IC50 in assay [1] was 0.51 to 9.99 nM; in assay [2], at most 20 nM.
